Assay results as given in ChEMBL document CHEMBL1201862, “PubChem BioAssay data set” (2004).
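A five-concentration, 48-hour dose response in 96-well plates underlies each endpoint, interpolated linearly between surrounding concentrations. GI50 is the concentration that inhibits growth by half.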 The source made the active and inactive calls. Cut-off read from the data, not from the text of the source: active = GI50 up to about 1.1 µM and inactive = higher.

Columns and labels:
Assay in all cases: inhibition of tumour cell growth, NCI panel, 48 h
SK-MEL-2 = system: SK-MEL-2
OVCAR-8 = system: OVCAR-8
HOP-92 = system: HOP-92
786-0 = system: 786-0
COLO 205 = system: COLO 205
RXF 393 = system: RXF 393
A498 = system: A498
CCRF-CEM = system: CCRF-CEM
NCI-H226 = system: NCI-H226
IGROV-1 = system: IGROV-1
M14 = system: M14
HT-29 = system: HT-29
TK-10 = system: TK-10
SNB-75 = system: SNB-75
UACC-257 = system: UACC-257
NCI-H460 = system: NCI-H460

Measured: GI50

C=CCN(CC=C)CC(C(C)=O)C(c1ccccc1)c1c(O)c2ccccc2oc1=O (centres undefined)
inactive: SK-MEL-2 > 100 µM | OVCAR-8 > 100 µM | HOP-92 > 100 µM | 786-0 > 100 µM | COLO 205 > 100 µM | RXF 393 > 100 µM | A498 > 100 µM | CCRF-CEM > 100 µM | NCI-H226 45.7 µM | IGROV-1 > 100 µM | M14 > 100 µM | HT-29 > 100 µM | TK-10 > 100 µM | SNB-75 39.6 µM | UACC-257 > 100 µM

CCc1cccc(=O)c([O-])c1.CCc1cccc(=O)c([O-])c1.[Bi+3].[Cl-]
inactive: SK-MEL-2 12.7 µM | OVCAR-8 2.96 µM | HOP-92 12.9 µM | 786-0 9.1 µM | COLO 205 2.29 µM | RXF 393 18.2 µM | A498 15 µM | CCRF-CEM 1.91 µM | NCI-H226 23.2 µM | NCI-H460 6.49 µM | IGROV-1 6.78 µM | M14 8.38 µM | HT-29 4.31 µM | TK-10 4.42 µM | SNB-75 17.6 µM | UACC-257 6.58 µM

Brc1cc2c(cc1C1SCCS1)OCO2
inactive: SK-MEL-2 > 100 µM | OVCAR-8 > 100 µM | 786-0 > 100 µM | A498 > 100 µM | CCRF-CEM > 100 µM | NCI-H460 > 100 µM | IGROV-1 > 100 µM | M14 > 100 µM | HT-29 > 100 µM | TK-10 > 100 µM | SNB-75 > 100 µM | UACC-257 > 100 µM

CC1=CP(=O)(OC(C)C)CC(C)=C1Cl (centres undefined)
inactive: SK-MEL-2 > 100 µM | OVCAR-8 > 100 µM | HOP-92 > 100 µM | 786-0 > 100 µM | COLO 205 > 100 µM | RXF 393 > 100 µM | A498 > 100 µM | CCRF-CEM 34.4 µM | NCI-H226 > 100 µM | NCI-H460 > 100 µM | IGROV-1 > 100 µM | M14 51.1 µM | HT-29 64.4 µM | TK-10 > 100 µM | SNB-75 > 100 µM | UACC-257 > 100 µM

Nn1c(=O)n(Cc2ccccc2)n(-c2ccccc2)c1=O
inactive: SK-MEL-2 > 100 µM | OVCAR-8 > 100 µM | HOP-92 > 100 µM | 786-0 > 100 µM | RXF 393 > 100 µM | A498 > 100 µM | CCRF-CEM > 100 µM | NCI-H226 > 100 µM | NCI-H460 > 100 µM | IGROV-1 > 100 µM | M14 > 100 µM | HT-29 > 100 µM | TK-10 > 100 µM | SNB-75 74.1 µM | UACC-257 > 100 µM

CCOc1ccccc1NC(=O)CC1SC(Nc2ccc([N+](=O)[O-])cc2)=NC1=O (centres undefined)
inactive: SK-MEL-2 18.3 µM | OVCAR-8 21.5 µM | HOP-92 10.2 µM | 786-0 16.7 µM | COLO 205 19.5 µM | RXF 393 18.1 µM | CCRF-CEM 17.2 µM | NCI-H226 20.4 µM | NCI-H460 21.3 µM | IGROV-1 23.2 µM | M14 23.3 µM | HT-29 21.7 µM | TK-10 25.4 µM | SNB-75 23.2 µM | UACC-257 17.3 µM

CCOC(=O)C(=O)Nc1ccccc1C(C)C
inactive: SK-MEL-2 > 100 µM | OVCAR-8 > 100 µM | HOP-92 > 100 µM | 786-0 > 100 µM | COLO 205 > 100 µM | A498 > 100 µM | CCRF-CEM > 100 µM | NCI-H226 > 100 µM | NCI-H460 > 100 µM | IGROV-1 > 100 µM | M14 > 100 µM | HT-29 > 100 µM | TK-10 > 100 µM | SNB-75 > 100 µM | UACC-257 > 100 µM

Cc1ccccc1NC(=O)/C(=N/NC(=O)CC#N)C1C(=O)N(c2ccccc2)N=C1N (centres undefined)
inactive: SK-MEL-2 > 100 µM | OVCAR-8 > 100 µM | HOP-92 36.5 µM | 786-0 > 100 µM | COLO 205 > 100 µM | RXF 393 > 100 µM | A498 > 100 µM | CCRF-CEM 31.3 µM | NCI-H226 > 100 µM | NCI-H460 > 100 µM | IGROV-1 > 100 µM | M14 > 100 µM | HT-29 > 100 µM | TK-10 > 100 µM | SNB-75 > 100 µM | UACC-257 > 100 µM

COC(=O)N1C=CC2=C(C)C3Nc4ccccc4C3C(C)=C2C1 (centres undefined)
active: OVCAR-8 0.682 µM | 786-0 0.54 µM | CCRF-CEM 0.726 µM | NCI-H460 0.256 µM
inactive: SK-MEL-2 1.47 µM | HOP-92 2.09 µM | COLO 205 1.15 µM | A498 16.2 µM | NCI-H226 1.61 µM | IGROV-1 1.47 µM | M14 1.64 µM | HT-29 1.96 µM | TK-10 1.66 µM | SNB-75 2.24 µM | UACC-257 3.21 µM

O=C(N[C@H]1CC2(C=C(I)C(=O)C(I)=C2)OC1=O)OCc1ccccc1
inactive: OVCAR-8 17.3 µM | 786-0 20.8 µM | COLO 205 14.5 µM | RXF 393 15.2 µM | A498 > 100 µM | CCRF-CEM 2.61 µM | NCI-H226 22.7 µM | NCI-H460 21.1 µM | M14 17.2 µM | HT-29 17.5 µM | TK-10 17.7 µM | SNB-75 19.6 µM | UACC-257 16.4 µM

CNC(=O)OCc1nccc2c(C)c3[nH]c4ccc(OC)cc4c3cc12
inactive: SK-MEL-2 8.91 µM | OVCAR-8 3.1 µM | HOP-92 10.6 µM | 786-0 3.78 µM | COLO 205 2.94 µM | RXF 393 3.16 µM | A498 6.7 µM | CCRF-CEM 1.51 µM | NCI-H226 1.73 µM | IGROV-1 4.8 µM | M14 9.12 µM | HT-29 2.54 µM | TK-10 19.3 µM | SNB-75 7.82 µM | UACC-257 11.3 µM
active: NCI-H460 1.08 µM

COc1ccc2cccc(C(=O)c3ccc(C)c4c3CCC4)c2c1
inactive: SK-MEL-2 34.6 µM | OVCAR-8 43.2 µM | 786-0 24.8 µM | COLO 205 29 µM | RXF 393 41.4 µM | A498 34.1 µM | CCRF-CEM 26.2 µM | NCI-H226 52.4 µM | NCI-H460 20.3 µM | IGROV-1 24.6 µM | M14 21.4 µM | HT-29 33 µM | TK-10 32.3 µM | SNB-75 > 100 µM | UACC-257 30.1 µM

CC(=O)c1ccc(NC(=O)/C(CC(=O)c2sc(-c3cccnc3)nc2C)=N/NC(N)=O)cc1
inactive: SK-MEL-2 > 100 µM | OVCAR-8 56.5 µM | 786-0 27.9 µM | COLO 205 18.2 µM | A498 31.5 µM | CCRF-CEM 21.6 µM | NCI-H226 25.9 µM | NCI-H460 27.1 µM | IGROV-1 > 100 µM | M14 > 100 µM | HT-29 > 100 µM | TK-10 > 10 µM | UACC-257 > 10 µM

CN1C(=O)CCC2[C@@H]3CC=C4C[C@@H](O)CC[C@]4(C)C3CC[C@@]21C (some centres undefined)
inactive: SK-MEL-2 > 100 µM | OVCAR-8 64.9 µM | 786-0 94.4 µM | RXF 393 18.3 µM | A498 > 100 µM | CCRF-CEM 36.1 µM | NCI-H226 > 100 µM | NCI-H460 45 µM | IGROV-1 96.2 µM | M14 83.6 µM | HT-29 36.6 µM | TK-10 > 100 µM | SNB-75 > 100 µM | UACC-257 20.3 µM

NC1=NC(=O)/C(=C/c2ccccc2[N+](=O)[O-])C(N)=N1
inactive: SK-MEL-2 > 100 µM | OVCAR-8 > 100 µM | HOP-92 > 100 µM | 786-0 > 100 µM | COLO 205 > 100 µM | RXF 393 > 100 µM | CCRF-CEM > 100 µM | NCI-H226 > 100 µM | NCI-H460 > 100 µM | IGROV-1 > 100 µM | M14 > 100 µM | HT-29 > 100 µM | TK-10 > 100 µM | SNB-75 > 100 µM | UACC-257 > 100 µM

CN(C)CCNC(=O)c1ccc(Cl)c2c(Nc3ccc(S(=O)(=O)N=C(N)N)cc3)c3ccccc3nc12
inactive: SK-MEL-2 9.75 µM | OVCAR-8 2.24 µM | 786-0 14.3 µM | COLO 205 3.78 µM | RXF 393 4.66 µM | CCRF-CEM 1.69 µM | NCI-H226 2.08 µM | NCI-H460 1.63 µM | IGROV-1 3.55 µM | M14 7.38 µM | HT-29 2.05 µM | TK-10 12.6 µM | SNB-75 > 10 µM

Cc1c(C(=O)O)oc2ccc([N+](=O)[O-])cc12
inactive: SK-MEL-2 > 100 µM | OVCAR-8 > 100 µM | HOP-92 72.4 µM | 786-0 > 100 µM | COLO 205 > 100 µM | A498 > 100 µM | CCRF-CEM > 100 µM | NCI-H460 > 100 µM | IGROV-1 > 100 µM | M14 > 100 µM | HT-29 > 100 µM | TK-10 > 100 µM | UACC-257 > 100 µM

Cc1cccc(NC(=O)CC(=O)N2N=C(N(CCC#N)c3ccc(Cl)cc3)CC2c2ccccc2)c1 (centres undefined)
inactive: OVCAR-8 > 100 µM | HOP-92 > 100 µM | 786-0 > 100 µM | COLO 205 > 100 µM | RXF 393 > 100 µM | CCRF-CEM > 100 µM | NCI-H460 > 100 µM | IGROV-1 > 100 µM | M14 > 100 µM | HT-29 > 100 µM | TK-10 > 100 µM | SNB-75 > 100 µM | UACC-257 > 100 µM

N#Cc1c2c(c(Cl)n3c1nc1ccccc13)CCCC2
active: RXF 393 0.272 µM | HT-29 1.11 µM
inactive: SK-MEL-2 2.8 µM | OVCAR-8 2.57 µM | 786-0 1.77 µM | COLO 205 5.12 µM | A498 11.4 µM | NCI-H226 1.74 µM | NCI-H460 1.69 µM | IGROV-1 2.69 µM | M14 3.45 µM | TK-10 2.53 µM | SNB-75 17.2 µM | UACC-257 2.05 µM
